In patent US7205411B2, “Aminopyridine derivatives as mGluR5 antagonists” (Addex Pharmaceuticals SA, priority 2003, dated 2007):
Where a name gives a salt, the structure may show the parent alone.

Row | SMILES | melting point
1 | Cc1ccc(N)c(C#Cc2cncc(Cl)c2)n1.Cl [Example 10, (2-(5-Chloro-pyridin-3-ylethynyl)-6-methyl-pyridin-3-yl)amine hydrochloride] | 193 °C (dec.)
2 | Cc1ccc(N)c(C#Cc2cccc(Cl)c2)n1.Cl | 195 °C (dec.)
3 | Cc1ccc(N)c(C#Cc2cccc(F)c2)n1.Cl [Example 3, (2-(3-Fluoro-phenylethynyl)-6-methyl-pyridin-3-yl)amine hydrochloride] | 199 to 200 °C (dec.)

Further lines, results first:

Row | melting point | SMILES
4 | 212 °C (dec.) | Cc1ccc(N)c(C#Cc2cc(F)cc(F)c2)n1.Cl [Example 7, (2-(3,5-Difluoro-phenylethynyl)-6-methyl-pyridin-3-yl)amine hydrochloride]
5 | 165 to 166 °C | COc1cccc(C#Cc2nc(C)ccc2N)c1 [Example 4, (2-(3-Methoxy-phenylethynyl)-6-methyl-pyridin-3-yl)amine]
6 | 204 °C | Cc1cc(C)c(N)c(C#Cc2cccc(Cl)c2)n1 (as salt: hydrochloride) [Example 13, (2-(3-Chloro-phenylethynyl)-4.6-dimethyl-pyridin-3-yl)amine hydrochloride]
7 | 132.4 to 134 °C | Cc1ccc(N)c(C#Cc2cccc(C#N)c2)n1.Cl
8 | 122 °C (dec.) | Cc1ccc(N)c(C#Cc2ccc(F)cc2)n1.Cl
